Test results reported in ChEMBL document CHEMBL1151930, “Physicochemical determinants of human renal clearance” (J Med Chem, 2009).

Experiment: clinical
Details: human, in vivo

In order of falling CL renal:
1. NNc1nncc2ccccc12 [HYDRALAZINE]  10.8 mL/min/kg
2. COc1ccc([C@@H]2Sc3ccccc3N(CCN(C)C)C(=O)[C@@H]2OC(C)=O)cc1 [DILTIAZEM]  9.23 mL/min/kg
3. CN/C(=N/CCSCc1nc[nH]c1C)NC#N [CIMETIDINE]  7.9 mL/min/kg
4. O=c1[nH]cnc2c1ncn2[C@H]1CC[C@@H](CO)O1 [DIDANOSINE]  6.8 mL/min/kg
5. NC(N)=Nc1nc(CSCCC(N)=NS(N)(=O)=O)cs1 [FAMOTIDINE]  4.42 mL/min/kg
6. C[C@H]1O[C@@H](n2cc(F)c(=O)[nH]c2=O)[C@H](O)[C@@H]1O [DOXIFLURIDINE]  4.3 mL/min/kg
7. c1ccc(C2(c3ccccc3)CC2C2=NCCN2)cc1 (centres undefined) [CIFENLINE]  4.2 mL/min/kg
8. Nc1nc(O)c2ncn(COC(CO)CO)c2n1 [GANCICLOVIR]  4.14 mL/min/kg
9. CCNCC(O)c1cccc(O)c1 (centres undefined) [ETILEFRINE]  3.96 mL/min/kg
10. Nc1nc(Cl)nc2c1ncn2[C@H]1C[C@H](O)[C@@H](CO)O1 [CLADRIBINE]  3.92 mL/min/kg
11. NC1CCN(c2c(F)cc3c(=O)c(C(=O)O)cn(C4CC4)c3c2Cl)C1 (centres undefined) [CLINAFLOXACIN]  3.2 mL/min/kg
12. Nc1ccn([C@@H]2O[C@H](CO)[C@@H](O)C2(F)F)c(=O)n1 [GEMCITABINE]  3.2 mL/min/kg
13. CC1=C(C(=O)O)N2C(=O)[C@@H](NC(=O)[C@H](N)C3=CCC=CC3)[C@H]2SC1 [CEPHRADINE]  3.14 mL/min/kg
14. Nc1cc(-c2ccncc2)c[nH]c1=O [INAMRINONE]  3.1 mL/min/kg
15. Cn1nnnc1SCC1=C(C(=O)O)N2C(=O)[C@@H](NC(=O)[C@H](O)c3ccccc3)[C@H]2SC1 [CEFAMANDOLE]  2.7 mL/min/kg
16. N[C@@H](C(=O)N[C@@H]1C(=O)N2C(C(=O)O)=C(CSc3c[nH]nn3)CS[C@H]12)c1ccc(O)cc1 [CEFATRIZINE]  2.64 mL/min/kg
17. CC1=C(C(=O)O)N2C(=O)[C@@H](NC(=O)[C@H](N)c3ccc(O)cc3)[C@H]2SC1 [CEFADROXIL]  2.33 mL/min/kg
18. CCN(CC)CCCC(C)Nc1ccnc2cc(Cl)ccc12 (centres undefined) [CHLOROQUINE]  2.3 mL/min/kg
19. COc1c(N2CCNC(C)C2)c(F)cc2c(=O)c(C(=O)O)cn(C3CC3)c12 (centres undefined) [GATIFLOXACIN]  2.3 mL/min/kg
20. CC(C)NCC(O)COc1ccc(COCCOC(C)C)cc1 (centres undefined) [BISOPROLOL]  2.28 mL/min/kg
21. Nc1ccn(C[C@@H](CO)OCP(=O)(O)O)c(=O)n1.O.O [CIDOFOVIR]  2.25 mL/min/kg
22. CC(C)(O/N=C(\C(=O)N[C@@H]1C(=O)N2C(C(=O)[O-])=C(C[n+]3ccccc3)CS[C@H]12)c1csc(N)n1)C(=O)O [CEFTAZIDIME]  2.13 mL/min/kg
23. CO/N=C(\C(=O)N[C@@H]1C(=O)N2C(C(=O)O)=C(COC(N)=O)CS[C@H]12)c1ccco1 [CEFUROXIME]  2.11 mL/min/kg
24. Oc1ccc2c(c1)[C@@]13CCCC[C@@]1(O)[C@@H](C2)N(CC1CCC1)CC3 [BUTORPHANOL]  2.05 mL/min/kg
25. CC1(C)S[C@@H]2[C@H](NC(=O)C(C(=O)O)c3ccccc3)C(=O)N2[C@H]1C(=O)O (some centres undefined) [CARBENICILLIN]  1.9 mL/min/kg
26. COc1cccc2c1C(=O)c1c(O)c3c(c(O)c1C2=O)C[C@@](O)(C(=O)CO)C[C@@H]3O[C@H]1C[C@H](N)[C@H](O)[C@H](C)O1 [DOXORUBICIN]  1.83 mL/min/kg
27. CC(=O)[C@]1(O)Cc2c(O)c3c(c(O)c2[C@@H](O[C@H]2C[C@H](N)[C@H](O)[C@H](C)O2)C1)C(=O)c1ccccc1C3=O [IDARUBICIN]  1.8 mL/min/kg
28. COc1ccc2c3c1O[C@H]1[C@@H](O)C=C[C@H]4[C@@H](C2)N(C)CC[C@@]341 [CODEINE]  1.7 mL/min/kg
29. C[C@H]1O[C@@H](O[C@H]2[C@@H](O)C[C@H](O[C@H]3[C@@H](O)C[C@H](O[C@H]4CC[C@@]5(C)[C@H](CC[C@@H]6[C@@H]5C[C@@H](O)[C@]5(C)[C@@H](C7=CC(=O)OC7)CC[C@]65O)C4)O[C@@H]3C)O[C@@H]2C)C[C@H](O)[C@@H]1O [DIGOXIN]  1.7 mL/min/kg
30. NCC1(CC(=O)O)CCCCC1 [GABAPENTIN]  1.7 mL/min/kg
31. CO/N=C(\C(=O)N[C@@H]1C(=O)N2C(C(=O)O)=CCS[C@H]12)c1csc(N)n1 [CEFTIZOXIME]  1.68 mL/min/kg
32. O=C(O)P(=O)(O)O [FOSCARNET]  1.68 mL/min/kg
33. C[C@H](N[C@@H](CCc1ccccc1)C(=O)O)C(=O)N1CCC[C@H]1C(=O)O [ENALAPRILAT ANHYDROUS]  1.6 mL/min/kg
34. COc1ccc2c3c1O[C@H]1C[C@@H](O)C=C[C@@]31CCN(C)C2 [GALANTAMINE]  1.57 mL/min/kg
35. Cc1onc(-c2c(F)cccc2Cl)c1C(=O)N[C@@H]1C(=O)N2[C@@H]1SC(C)(C)[C@@H]2C(=O)O [FLOXACILLIN]  1.56 mL/min/kg
36. CN1CCN(c2c(F)cc3c(=O)c(C(=O)O)cn(CCF)c3c2F)CC1 [FLEROXACIN]  1.49 mL/min/kg
37. CCN(CC)CCNC(=O)c1cc(Br)c(N)cc1OC [BROMOPRIDE]  1.4 mL/min/kg
38. C[C@@H](CN1CC(=O)NC(=O)C1)N1CC(=O)NC(=O)C1 [DEXRAZOXANE]  1.4 mL/min/kg
39. CO/N=C(\C(=O)N[C@@H]1C(=O)N2C(C(=O)O)=C(COC(C)=O)CS[C@H]12)c1csc(N)n1 [CEFOTAXIME]  1.37 mL/min/kg
40. O=C(O)[C@H]1/C(=C/CO)O[C@@H]2CC(=O)N21 [CLAVULANIC ACID]  1.33 mL/min/kg
41. COc1cc(OC)c(C(=O)CCCN2CCCC2)c(OC)c1 [BUFLOMEDIL]  1.3 mL/min/kg
42. Nc1ncn([C@H]2C[C@H](O)[C@@H](CO)O2)c(=O)n1 [DECITABINE]  1.3 mL/min/kg
43. O=c1[nH]cc(F)c(=O)[nH]1 [FLUOROURACIL]  1.1 mL/min/kg
44. CN[C@@H]1CCc2[nH]c3ccc(C(N)=O)cc3c2C1 [FROVATRIPTAN]  1.04 mL/min/kg
45. CN1C2CCCC1CC(NC(=O)c1nn(C)c3ccccc13)C2 (centres undefined) [GRANISETRON]  1 mL/min/kg
46. NS(=O)(=O)c1cc(C2(O)NC(=O)c3ccccc32)ccc1Cl (centres undefined) [CHLORTHALIDONE]  0.98 mL/min/kg
47. CCCCNc1cc(C(=O)O)cc(S(N)(=O)=O)c1Oc1ccccc1 [BUMETANIDE]  0.85 mL/min/kg
48. COc1ccc(C(=O)Nc2ccccc2CCC2CCCCN2C)cc1 (centres undefined) [ENCAINIDE]  0.78 mL/min/kg
49. CCCCc1ncc(/C=C(\Cc2cccs2)C(=O)O)n1Cc1ccc(C(=O)O)cc1 [EPROSARTAN]  0.7 mL/min/kg
50. CCC[C@@H]1C[C@@H](C(=O)N[C@@H]([C@H]2O[C@H](SC)[C@H](O)[C@@H](O)[C@H]2O)[C@H](C)Cl)N(C)C1 [CLINDAMYCIN]  0.62 mL/min/kg
51. O=P1(NCCCl)OCCCN1CCCl (centres undefined) [IFOSFAMIDE]  0.58 mL/min/kg
52. NC(=O)NO [HYDROXYUREA]  0.54 mL/min/kg
53. CN(C)CCCC1(c2ccc(F)cc2)OCc2cc(C#N)ccc21 (centres undefined) [CITALOPRAM]  0.45 mL/min/kg
54. CN(C)CCC(c1ccc(Cl)cc1)c1ccccn1 (centres undefined) [CHLORPHENIRAMINE]  0.43 mL/min/kg
55. CC1(C)C[C@@H]1C(=O)N/C(=C\CCCCSC[C@H](N)C(=O)O)C(=O)O [CILASTATIN]  0.41 mL/min/kg
56. CCCCCN(CCCOC)C(=O)[C@@H](CCC(=O)O)NC(=O)c1ccc(Cl)c(Cl)c1 [DEXLOXIGLUMIDE]  0.41 mL/min/kg
57. COC(=O)[C@H]1[C@@H](OC(=O)c2ccccc2)C[C@@H]2CC[C@H]1N2C [COCAINE]  0.4 mL/min/kg
58. CC[C@H]1OC(=O)[C@H](C)[C@@H](O[C@H]2C[C@@](C)(OC)[C@@H](O)[C@H](C)O2)[C@H](C)[C@@H](O[C@@H]2O[C@H](C)C[C@H](N(C)C)[C@H]2O)[C@](C)(O)C[C@@H](C)C(=O)[C@H](C)[C@@H](O)[C@]1(C)O [ERYTHROMYCIN]  0.34 mL/min/kg
59. CC(=O)O[C@@]12CO[C@@H]1C[C@H](O)[C@@]1(C)C(=O)[C@H](O)C3=C(C)[C@@H](OC(=O)[C@H](O)[C@@H](NC(=O)OC(C)(C)C)c4ccccc4)C[C@@](O)([C@@H](OC(=O)c4ccccc4)[C@H]21)C3(C)C.O.O.O [DOCETAXEL]  0.29 mL/min/kg
60. CCOC(=O)Nc1ccc(NCc2ccc(F)cc2)nc1N [FLUPIRTINE]  0.27 mL/min/kg
61. O=C1CN=C(c2ccccn2)c2cc(Br)ccc2N1 [BROMAZEPAM]  0.26 mL/min/kg
62. O=C(N[C@H](CO)[C@H](O)c1ccc([N+](=O)[O-])cc1)C(Cl)Cl [CHLORAMPHENICOL]  0.24 mL/min/kg
63. OC(Cn1cncn1)(Cn1cncn1)c1ccc(F)cc1F [FLUCONAZOLE]  0.23 mL/min/kg
64. CS(=O)(=O)OCCCCOS(C)(=O)=O [BUSULFAN]  0.2 mL/min/kg
65. C[C@H]1c2cccc(O)c2C(=O)C2=C(O)[C@]3(O)C(=O)C(C(N)=O)=C(O)[C@@H](N(C)C)[C@@H]3[C@@H](O)[C@@H]21.O [DOXYCYCLINE]  0.19 mL/min/kg
66. CN(C)CCCN1c2ccccc2Sc2ccc(Cl)cc21 [CHLORPROMAZINE]  0.16 mL/min/kg
67. CO/N=C(\C(=O)N[C@@H]1C(=O)N2C(C(=O)O)=C(CSc3nc(=O)c(=O)[nH]n3C)CS[C@H]12)c1csc(N)n1 [CEFTRIAXONE]  0.12 mL/min/kg
68. CN(C)CCC=C1c2ccccc2COc2ccccc21 [DOXEPIN]  0.12 mL/min/kg
69. COc1ccccc1OCCNCC(O)COc1cccc2[nH]c3ccccc3c12 (centres undefined) [CARVEDILOL]  0.1 mL/min/kg
70. CSc1ccc(C(=O)c2[nH]c(=O)[nH]c2C)cc1 [ENOXIMONE]  0.1 mL/min/kg
71. CCCCN1CCCCC1C(=O)Nc1c(C)cccc1C (centres undefined) [BUPIVACAINE]  0.09 mL/min/kg
72. C[C@@H]1C[C@H]2[C@@H]3CCC4=CC(=O)C=C[C@]4(C)[C@@]3(F)[C@@H](O)C[C@]2(C)[C@@]1(O)C(=O)CO [DEXAMETHASONE]  0.09 mL/min/kg
73. Nc1ccc(S(=O)(=O)c2ccc(N)cc2)cc1 [DAPSONE]  0.05 mL/min/kg
74. O=C(O)Cc1ccccc1Nc1c(Cl)cccc1Cl [DICLOFENAC]  0.04 mL/min/kg
75. CCC(C)(C)NCC(O)COc1ccccc1C(=O)CCc1ccccc1 (centres undefined) [DIPRAFENONE]  0.04 mL/min/kg
76. O=c1[nH]c2ccccc2n1CCCN1CCC(n2c(=O)[nH]c3cc(Cl)ccc32)CC1 [DOMPERIDONE]  0.04 mL/min/kg
77. O=C(O)CCCc1ccc(N(CCCl)CCCl)cc1 [CHLORAMBUCIL]  0.03 mL/min/kg
78. Cc1ncsc1CCCl [CLOMETHIAZOLE]  0.03 mL/min/kg
79. CCOC(=O)c1ncn2c1CN(C)C(=O)c1cc(F)ccc1-2 [FLUMAZENIL]  0.03 mL/min/kg
80. Cn1c(=O)c2c(ncn2C)n(C)c1=O [CAFFEINE]  0.02 mL/min/kg
81. CC(C)(C)NC(=O)[C@H]1CC[C@H]2[C@@H]3CC[C@H]4NC(=O)C=C[C@]4(C)[C@H]3CC[C@]12C [FINASTERIDE]  0.02 mL/min/kg
82. CN1C(=O)NC(=O)C(C)(C2=CCCCC2)C1=O (centres undefined) [HEXOBARBITAL]  0.02 mL/min/kg
83. CCCNC(=O)NS(=O)(=O)c1ccc(Cl)cc1 [CHLORPROPAMIDE]  0.01 mL/min/kg
84. O=C1CN=C(c2ccccc2Cl)c2cc([N+](=O)[O-])ccc2N1 [CLONAZEPAM]  0.01 mL/min/kg
